Experimental data published in patent US20230114811A1, “GLYCOSYLTRANSFERASES, POLYNUCLEOTIDES ENCODING THESE AND METHODS OF USE” (THE NEW ZEALAND INSTITUTE FOR PLANT AND FOOD RESEARCH …, priority 2020, published 2023).
Values joined by “and” are separate entries in the source; they are usually repeats but may differ in a detail not shown here. Equal entries are not always repeated.

Experiments:
[1] = tested on: recombinant PGT2 cloned from M. toringoides; test: Substrate specificity of recombinant PGT2, UDP-glucoside as sugar donor, products determined by LC-MS/MS; type: biochemical; conditions: amount of product formed relative to conversion of phloretin to trilobatin set at 100%
Experimental: The products of each reaction were determined by LC-MS/MS. […] Quercetin-3-O-glucoside was detected as a reaction product using quercetin (FIG. 8A-F) with a lower conversion rate of 9.1% (Table 7).

[2] = Isosweetness comparison test between trilobatin and sucrose (sensory panel); type: in vivo; conditions: n=5 participants
Experimental: Five participants with high acuity for trilobatin in the triangle test were selected to perform the isosweetness comparison test between trilobatin and sucrose. Each participant was given one trilobatin solution and eight sucrose solutions at different concentrations to taste. Solutions were prepared as described above for the apple leaf teas. The trilobatin solutions were presented at 12.3, 18.5, 27.8 and 41.7 mg per 100 ml, while the sucrose solutions were presented at 296.3, 444.4, 592.6, 666.7, 888.9, 1000, 1333.3 and 2000 mg per 100 ml.

[3] = Jia et al., 2008; cited from earlier work
[4] = substrate: O=C(CCc1ccc(O)cc1)c1c(O)cc(O)cc1O; test: Km/Vmax determination for recombinant PGT2 (glycosyltransferase activity assay, HPLC); type: biochemical, M. toringoides; conditions: other: phloretin 4-500 μM, fixed UDP-glucose 500 μM, pH 9.0, 0.1 M Tris-HCl, 40° C., 10 min

For `O=C(CCc1ccc(O)c(O)c1)c1c(O)cc(O)cc1O` [3-OH phloretin], the “Conversion (%)” value [1] was 58.7 ± 2.3%.

For `O=C(O)/C=C/c1ccc(O)cc1` [4-coumaric acid], the “Conversion (%)” value [1] was 0%.

With `O=C(O)/C=C/c1ccc(O)c(O)c1` [caffeic acid] the “Conversion (%)” value [1] was 0%.

For `O=C(/C=C/c1ccc(O)c(O)c1)O[C@@H]1C[C@](O)(C(=O)O)C[C@@H](O)[C@H]1O` [chlorogenic acid], the “Conversion (%)” value [1] was 0%.

With `O=C1C[C@@H](c2ccc(O)cc2)Oc2cc(O)cc(O)c21` [naringenin] the “Conversion (%)” value [1] was 0%.

In the case of `COc1ccc([C@@H]2CC(=O)c3c(O)cc(O[C@@H]4O[C@H](CO)[C@@H](O)[C@H](O)[C@H]4O[C@@H]4O[C@@H](C)[C@H](O)[C@@H](O)[C@H]4O)cc3O2)cc1O` [neohesperidin], the “Conversion (%)” value [1] is reported as 0%.

In the case of `O=C(CCc1ccc(O)cc1)c1c(O)cc(O)cc1O` [phloretin, 3-(4-hydroxyphenyl)-1-(2,4,6-trihydroxyphenyl)propan-1-one], the “Conversion (%)” value [1] is reported as 100.0 ± 6.1%.

In the case of `O=c1c(O)c(-c2ccc(O)c(O)c2)oc2cc(O)cc(O)c12` [quercetin], the “Conversion (%)” value [1] is reported as 9.1% and 9.1 ± 0.1%.

In the case of `O=C(CCc1ccc(O)c(O)c1)c1c(O)cc(O[C@@H]2O[C@H](CO)[C@@H](O)[C@H](O)[C@H]2O)cc1O` [sieboldin, 3-hydroxyphloretin-4′-O-glucoside], the “Conversion (%)” value [1] is reported as 0%.

For `O=C(CCc1ccc(O)cc1)c1c(O)cc(O[C@@H]2O[C@H](CO)[C@@H](O)[C@H](O)[C@H]2O)cc1O` [trilobatin, 1-[2,6-dihydroxy-4-[(2S,3R,4S,5S,6R)-3,4,5-trihydroxy-6-(hydroxymethyl)oxan-2-yl]oxyphenyl]-3-(4-hydroxyphenyl)propan-1-one], the “Conversion (%)” value [1] was 0%, the “Isosweetness (trilobatin vs sucrose)” value ([2]; R^2=0.98, mean±SE) was 35.2+1.66 and the sweeter than sucrose ([2]; trilobatin purified from leaves of crabapple hybrid ‘Adams’) was about 35 fold. The “sweeter than sucrose (reported)” value [3] was about 100 × and the sweetness detection threshold [3] was 3 to 200 mg/L.

B1: PGT2 (Malus toringoides) (protein)
chain: MEATAIVLYPSPLIGHLVSMVELGKLILTRHPSLCIHILITTPPYRANDTDSYITSVSAANPSLIFHHLPTISLPPSLASSRNHEILAFELAPLYNPNVHQALVSISHNFSIKAFVMDFFCYVGLPVATELNIPSYFFFTSSANTLASSLYLPTLHNIIDKSLKDLNILLNIPGVPPMPSSDMPQPTLDRNQKVYEHVQGSSKQFPKSAGIIVNTFESLEPRALRAIWDGLCLPENVPTPPVYPIGPLIVSHGGGGRGAECLKWLDSQPSGSVVFLCFGSLGLFSKEQLKEIAIGLENSGHRFLWVVRNPPAQNQIGLDIKESDPELKSLLPDGFLDRTKDRGLVVKSWAPQAAVLNHNSVGGFVSHCGWNSVLESVCAGVPIVAWPLYAEQRFNRVVLVKEIKIAMPMNESEDGFVRAAEVEKRITELMDSEEGASIRKRTKDLQNNAHAALGETGSSGVALTKLLEFWGKTC
Molecule B1 has a Km [4] of 18.0 ± 6.7 µM and a Vmax [4] of 1.85 ± 0.17 nmol/min.
